Where two headings read alike, the source gives them in different places.
Legend:
CrzA:GFP = format: cell-based, Aspergillus fumigatus; conditions: 15 min
ΔsltA CrzA:GFP = format: cell-based, Aspergillus fumigatus; conditions: 15 min
[1] = tested on: A. fumigatus h2A::mRFP strain; assay: h2A::mRFP fluorescence, apoptosis-like cell death marker; format: cell-based, Aspergillus fumigatus; conditions: H2O2 10 mM, COL 10 or 20 μM, CAS 0.03 or 0.2 μg/mL, or CAS with COL; 1 h
A. fumigatus conidia = assay: Fungicidal activity: CFU on drug-free MM after 48 h with compound + CAS; format: cell-based, Aspergillus fumigatus; conditions: 0.2 μg/mL CAS, then CFU on compound-free medium, n = 3
[2] = tested on: A. fumigatus conidia in A549 cells; assay: A549 human lung epithelial cells killing assay; format: cell-based, Aspergillus fumigatus
A. fumigatus = format: cell-based, Aspergillus fumigatus; conditions: 58 PKI at 20 µM alone or with COL 2.5 µM; 48 h, 37 °C
HepG2 liver cells = assay: HepG2 cytotoxicity, Alamar blue; format: cell-based, human; conditions: COL 0, 20 and 40 µM + CAS 50 μg/mL; topotecan positive control; 48 h; n = 6
[3] = tested on: A. fumigatus mito::GFP germlings; format: cell-based, Aspergillus fumigatus
[4] = tested on: A. fumigatus wild-type mycelia; format: cell-based, Aspergillus fumigatus; conditions: n = 9
A. fumigatus ΔsltA = format: cell-based, Aspergillus fumigatus
A. fumigatus ΔcalA = format: cell-based, Aspergillus fumigatus
A. fumigatus ΔcrzA = format: cell-based, Aspergillus fumigatus
[5] = tested on: A. fumigatus (Af293) infection; format: in vivo, Caenorhabditis elegans
A. fumigatus ΔsltA ΔcrzA = format: cell-based, Aspergillus fumigatus
[6] = tested on: A. fumigatus wild-type (p)agsA::mluc; format: cell-based, Aspergillus fumigatus; conditions: CAS 0.05 and 0.125 µg/mL; COL 50 and 80 µM; or combination; 16 h at 35 °C
SltA = format: cell-based, Aspergillus fumigatus

[Ca+2].[Cl-].[Cl-] [CaCl2]
increase of CrzA:GFP translocation to the nucleus (CrzA:GFP): about 4 fold
increase of CrzA:GFP localization to the nucleus (ΔsltA CrzA:GFP): about 4 fold

OO [H2O2]
mRFP fluorescence of h2A::mRFP germlings [1]: complete loss of red fluorescence

COC(=O)C1=C(C)NC(C)=C(C(=O)OC(C)(C)CN(C)CCC(c2ccccc2)c2ccccc2)C1c1cccc([N+](=O)[O-])c1 (centres unmarked) [LER, lercanidipine]
lowest concentration with 100% fungicidal effect combined with CAS (A. fumigatus conidia): 3.95 µg/mL

C[C@@H](c1ncncc1F)[C@](O)(Cn1cncn1)c1ccc(F)cc1F [VOR, voriconazole]
A. fumigatus conidial killing ([2]; VOR 0.5 μg/mL, COL 20 and 40 μM, CAS 50 μg/mL, or COL + CAS, MOI 1:10, 24 h, n = 6): 85%

Cn1cc(C2=C(c3cn(C4CCN(Cc5ccccn5)CC4)c4ccccc34)C(=O)NC2=O)c2ccccc21 [enzaustarin, enzastaurin]
potentiation of COL activity (metabolic activity) (A. fumigatus): potentiated COL activity

CC[C@@]1(O)C(=O)OCc2c1cc1n(c2=O)Cc2cc3c(CN(C)C)c(O)ccc3nc2-1 [topotecan]
toxicity to HepG2 cells (cell viability, Alamar blue) (HepG2 liver cells): very high toxicity

caspofungin
germlings with mitochondrial fragmentation [3]: 35%
mRFP fluorescence of h2A::mRFP germlings [1]: no differences in mRFP fluorescence
reduction of total ATP compared with the control [4]: about 25%
growth of ΔsltA compared with the wild-type strain (A. fumigatus ΔsltA): comparable growth with the wild-type
growth of ΔcalA compared to wild-type (A. fumigatus ΔcalA): significantly better growth
growth of ΔcrzA compared to wild-type (A. fumigatus ΔcrzA): significantly better growth
survival of infected animals over 3 days ([5]; 25 °C): significantly improved survival

colistin
lowest concentration with 100% fungicidal effect combined with CAS (A. fumigatus conidia): 10 µM
germlings with mitochondrial fragmentation [3]: 20%
mRFP fluorescence of h2A::mRFP germlings [1]: no differences in mRFP fluorescence
reduction of total ATP compared with the control [4]: about 25%
effect of Ca2+ addition on ΔsltA growth in the presence of COL (A. fumigatus ΔsltA): rescue ΔsltA growth
growth of ΔsltA compared with the wild-type strain (A. fumigatus ΔsltA): significantly more sensitive to COL
sensitivity of ΔsltA ΔcrzA compared with ΔsltA (A. fumigatus ΔsltA ΔcrzA): as sensitive to COL and COL with CAS as ΔsltA alone
luminescence readings compared with no compound controls [6]: about 2 fold
increased expression of SltA compared to non-exposure (SltA): about 4 fold
increase of CrzA:GFP translocation to the nucleus (CrzA:GFP): about 4 fold
A. fumigatus conidial killing, COL alone vs combination ([2]; COL 80 µM vs COL 80 µM + CAS 50 µg/mL): same level of conidial killing than the combination of COL 80 µM + CAS 50 µg/mL
survival of infected animals over 3 days ([5]; in vivo): no impact on C. elegans survival

Reference: article PMC12214536 (Nature Communications, 2025)
